Data from US8314150B2, “Kinase protein binding inhibitors” (priority 2008, dated 2012).

System: FAK wildtype fibroblasts (MEFs)
Experiment: MTT cell viability assay, FAK wildtype vs FAK null fibroblasts
Type: cell-based
Conditions: 72 hours, p<0.05
Description: The 3-(4,5-dimethylthiazol-2-yl)-5-(3-carboxymethoxyphenyl)-2-(4-sulfophenyl)-2H-tetrazolium compound from Promega Viability kit (Madison, Ill.) was added, and the cells were incubated at 37° C. for 1-2 hours. The optical density on 96-plate was analyzed with a microplate reader at 490 nm to determine cell viability. In addition, cells were stained with trypan blue after 24 hours of treatment with Y15 and the percent of cells that stained positive were determined with a hemacytometer. Cell adhesion assay—The poly-L-Lysine or Collagen (5 μg/ml) coated 96-well plates were blocked with the blocking buffer (medium with 0.5% BSA) for 1 hour at 37 C. […] Then 2% SDS was added to the dried plated and OD at 590 nm was measured for detecting cell adhesion. […] Protein concentrations were determined using a Bio-Rad Kit. The boiled samples were loaded on Ready SDS-10% PAGE gels (Bio Rad, Inc) and used for Western blot analysis with the protein-specific antibody. […] Detachment Assay—Cells were plated with and without inhibitors for 24 hours, and detached and attached cells were counted in a hemocytometer. We calculated the percent of detachment by dividing the number of detached cells by the total number of cells. The percent of detached cells was calculated in three independent experiments. […] For each experiment 300 cells per treatment were counted. […]

Cl.Cl.Cl.Cl.Nc1cc(N)c(N)cc1N [Y15, 1,2,4,5-benzenetetraamine tetrahydrochloride]
dose from which viability of FAK wildtype fibroblasts decreased compared to FAK null fibroblasts: 0.1 µM
